Marks after values point to notes of the source that are not given here.
Columns and labels:
galK 1 site = assay: red/white colony screen of editing efficiency at the galK 1 site (CREATE recombineering); type: cell-based, E. coli MG1655; conditions: for Editing Efficiency 1 mM Theo: induced for 3 hours with 1 mM theophylline; for Editing Efficiency no Theo: no theophylline, 3 hours recovery
Method: Candidates from this enriched library were analyzed to inform an improved library design. After three selection/counterselection steps, cells were plated on M63 selection medium^20 and 150 colonies were picked. Each isolated candidate was then transformed into unedited E. coli to screen for theophylline-responsive constructs using a red/white colony assay to quantify the percentage of edited bacteria. Colonies with an unedited galK site appear red whereas edited colonies appear white (FIG. 5). The percentage of white colonies is considered the editing efficiency. Gene editing was induced as previously described with or without adding theophylline and the editing efficiencies were compared.
The protocol established by Garst et al was mainly followed. LB containing kanamycin and chloramphenicol was inoculated with MGλ9 cells and grown overnight at 30° C. The stationary culture was diluted 100 fold in LB, containing chloramphenicol, kanamycin and 0.2% arabinose and grown to an OD600=0.4-0.6 in 25 mL LB. The culture was heat-shocked in a shaking waterbath at 42° C. for 15 minutes to induce expression of the lambda-red proteins from pSIM5. Then, the culture was washed in two volumes of ice-cold deionized water, resuspended in 500 μl deionized water and 50 μl of the cell suspension was electroporated with 200 ng of a CREATE plasmid that encodes gRNA and homology template. The transformants were recovered in 4 mL of LB, containing 0.2% arabinose and optionally 1 mM theophylline or 1 μM anhydrotetracycline (ATC), and shaken at 37° C. for 3 hours before plating on MacConkey Agar. To estimate the number of cfu, aliquots were plated on LB agar 1 hour after transformation.
(§1) In order to assess the frequency of gene editing, a red/white screen was used to visualize the introduction of a stop codon into the galK gene by CREATE. The original CREATE protocol was used for inducing gene editing and after 3 hours of recovery (with or without the agRNA ligand) a series of dilutions of the cultures were plated on MacConkey Agar plates containing 1% galactose. Bacterial colonies with a mutated galK* site appear white on the plates, whereas non-edited colonies appear red. The editing efficiency could be calculated by dividing the number of edited colonies over the total number of colonies. By comparing the editing efficiency in presence versus absence of the ligand, a dynamic range of the in vivo activity could be determined.
When screening the enriched libraries for switchable constructs, the transformants were recovered in 4 mL of LB broth, a dilution series was plated for every construct and the experiment was only carried out once due to the large volume of colonies screened (˜250 in total). When the constructs A9 and GU19 were characterized in detail, triplica of the experiment were carried out.

galK1 site = assay: co-transformation of targeting gRNA plasmid with non-targeting gRNA plasmid (simulated library); conditions: for # of unedited colonies carrying non-targeting gRNA plasmid: 16 unedited colonies picked, 20 ng non-targeting + 180 ng targeting plasmid, 1 mM theophylline
xylA gene = assay: red/white screen of editing at the xylA gene; type: cell-based, E. coli; conditions: 1 mM theophylline
Method: (§2) Promising agRNA constructs were analyzed in further detail. […] The xylA gene was targeted with these 17 agRNAs to test whether a different spacer sequence affects the performance. Editing was quantified with the same red/white screen. […] To confirm sequence independence of those two agRNAs, they were used to edit three more alternative sites at the galK gene. […] Sequencing confirmed that the phenotypic change in the assay corresponded to a designed genomic edit (FIG. 7). The observation that a number of agRNAs only act at the selected galK1 site highlights that the CRISPR-Cas9 system can be selected to act at a single sequence, a feature that could be exploited for reducing off-target effects.
as §1, with “Bacterial colonies with a mutated galK* site appear white on the plates, whereas non-edited colonies appear red.” left out

[1] = tested on: alternative sites at the galK gene; assay: editing at three more alternative sites at the galK gene; type: cell-based, E. coli; conditions: with or without 1 mM theophylline
Method: as §2
as §1, with “Bacterial colonies with a mutated galK* site appear white on the plates, whereas non-edited colonies appear red.” left out

[2] = target: T1, Streptococcus pyogenes Cas9 (Streptococcus pyogenes serotype M1, UniProt Q99ZW2); assay: electrophoretic mobility shift assay (EMSA) of Cas9 binding to gRNAs; conditions: presence or absence of 250 μM theophylline
T1 construct: host or cells: E. coli BL21 (DE3) Rosetta
T1 sequence (Q99ZW2 whole entry): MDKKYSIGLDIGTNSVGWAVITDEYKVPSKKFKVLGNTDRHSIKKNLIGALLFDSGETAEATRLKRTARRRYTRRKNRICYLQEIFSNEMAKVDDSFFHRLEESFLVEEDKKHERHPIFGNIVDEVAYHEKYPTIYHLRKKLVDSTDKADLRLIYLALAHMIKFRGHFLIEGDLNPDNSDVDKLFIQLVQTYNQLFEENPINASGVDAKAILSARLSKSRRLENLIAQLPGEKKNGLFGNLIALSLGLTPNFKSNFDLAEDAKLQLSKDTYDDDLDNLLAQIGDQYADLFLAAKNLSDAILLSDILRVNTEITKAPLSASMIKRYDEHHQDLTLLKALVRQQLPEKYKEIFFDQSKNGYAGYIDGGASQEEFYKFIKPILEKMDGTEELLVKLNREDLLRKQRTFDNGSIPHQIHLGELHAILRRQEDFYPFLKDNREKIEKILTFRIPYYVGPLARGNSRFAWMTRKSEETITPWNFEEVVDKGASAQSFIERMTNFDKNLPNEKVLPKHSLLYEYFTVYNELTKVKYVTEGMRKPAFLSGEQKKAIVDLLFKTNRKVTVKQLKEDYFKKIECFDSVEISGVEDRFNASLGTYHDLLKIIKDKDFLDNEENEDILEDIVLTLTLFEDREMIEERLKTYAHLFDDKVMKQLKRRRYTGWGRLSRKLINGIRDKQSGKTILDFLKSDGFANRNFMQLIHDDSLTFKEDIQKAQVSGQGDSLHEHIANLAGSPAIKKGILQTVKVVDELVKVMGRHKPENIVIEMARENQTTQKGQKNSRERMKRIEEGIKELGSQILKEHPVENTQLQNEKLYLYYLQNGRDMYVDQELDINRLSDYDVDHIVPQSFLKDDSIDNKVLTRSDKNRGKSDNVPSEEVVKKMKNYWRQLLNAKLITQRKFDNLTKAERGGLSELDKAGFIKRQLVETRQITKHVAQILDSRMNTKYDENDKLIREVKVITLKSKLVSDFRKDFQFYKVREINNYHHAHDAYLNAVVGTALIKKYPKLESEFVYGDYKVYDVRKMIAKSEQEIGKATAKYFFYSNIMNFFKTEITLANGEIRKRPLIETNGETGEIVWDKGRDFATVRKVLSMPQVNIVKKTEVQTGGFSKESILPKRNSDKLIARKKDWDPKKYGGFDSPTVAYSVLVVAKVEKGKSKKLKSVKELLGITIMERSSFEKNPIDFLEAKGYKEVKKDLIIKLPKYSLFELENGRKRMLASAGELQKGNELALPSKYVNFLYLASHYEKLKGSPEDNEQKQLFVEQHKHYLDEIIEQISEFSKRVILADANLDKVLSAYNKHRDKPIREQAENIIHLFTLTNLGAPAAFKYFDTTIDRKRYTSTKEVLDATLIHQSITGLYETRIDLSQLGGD

MGλ9 strain = assay: transformation and editing efficiency, agRNAs activated with theophylline 1 hour after transformation (aptamer-protocol); type: cell-based, E. coli; conditions: theophylline added 1 hour after transformation; for increase in number of transformants: versus wt gRNA
Method: FIGS. 3A-3D show aptamer-gRNAs enable high-throughput genome editing. FIG. 3A is a schematic showing the workflow of the aptamer-controlled gene editing. […] CFUs are colony forming units μg-1 DNA and per 4 mL of recovery media. […] Each dot represents a biological replicate and error bars indicate standard deviation from the mean. FIG. 3C is a schematic of the plasmid design used to enable multiplexed gene editing. The individual homology arms and agRNAs are identical to the ones previously described for the single-edit experiments. […] The values represent the average of three biological replicates.
Equipped with temporally controllable agRNAs, the gene editing technology CREATE^10 was optimized. One major drawback of CRISPR-mediated bacterial gene editing technologies is cell death caused by dsDNA cuts^10, despite overexpression of λ-red proteins to increase the frequency of homologous repair. Without wishing to be bound by theory, it is hypothesized that the stress of transformation combined with rapid generation of dsDNA breaks synergistically leads to a high level of cell death. […] Although a low transformation efficiency is not a significant issue when creating a single edit with a defined sgRNA, it dramatically impacts the ability to transform a library of sgRNA plasmids to generate a population of bacteria with different edits. In this process, a portion of gRNAs from the library is expected to be non-functional due to errors in oligonucleotide synthesis, sgRNA misfolding, or inefficient targeting.
LB containing kanamycin and chloramphenicol was inoculated with MGλ9 cells and grown overnight at 30° C. The stationary culture was diluted 100 fold in LB, containing chloramphenicol and kanamycin and grown to an OD600=0.4-0.6 in 25 mL LB. Then, the culture was washed in two volumes of ice-cold deionized water, resuspended in 500 μl deionized water and 50 μl of the cell suspension was electroporated with 200 ng of a CREATE plasmid that encodes gRNA and homology template. The transformants were recovered in 4 mL of LB, containing 0.2% arabinose and shaken at 30° C. for 1 hour. The culture was heat-shocked in a shaking waterbath at 42° C. for 15 minutes and 1 mM theophylline or 1 μM ATC was added to the culture. The culture was shaken at 37° C. for 3 hours before plating on MacConkey Agar. To estimate the number of cfu, aliquots were plated on LB agar 1 hour after transformation.

[3] = tested on: galK (site 1) and xylA (site 2); assay: multiplexed gene editing with theophylline-regulated GU19-agRNA and 3MX-regulated A9-agRNA on one plasmid; type: cell-based, E. coli; conditions: 3-hour induction with 1 mM of a single ligand
Method: A plasmid was designed that expressed a theophylline-regulated GU19-agRNA targeting galK1 and a 3-methylxanthine (3MX)-regulated A9-agRNA targeting the xylA gene. […] The plasmid construct was then used for a 3-hour induction with either 1 mM theophylline, 1 mM 3MX or a combination of the two and the transformed bacteria were plated on MacConkey agar that contained either galactose, xylose or both to assay editing of the galK and xylA genes with the red/white screen (FIG. 3D, FIG. 11).
For the purpose of first adding theophylline and later 3MX to independently induce two different agRNAs, the protocol was slightly modified. First, the bacteria were prepared and transformed as in the original protocol, 1 mM theophylline was added to the media and the culture was shaken at 30° C. for three hours. Then, the culture was heat-shocked again at 42° C. for 15 minutes to induce expression of the lambda-red proteins again and 1 mM 3MX was added to the media. The culture was shaken at 37° C. for three hours and then plated.

[4] = 9:1 targeting:non-targeting mixture
[5] = plasmid mixture 90% targeting galK1, 10% non-targeting (eGFP) gRNA

sgRNA: wild-type single guide RNA; cassette AGAGCTAGCAAGTT, SEQ ID NO: 1 (chemistry not given here)
Editing Efficiency 1 mM Theo (galK 1 site): 89%**
Editing Efficiency no Theo (galK 1 site): 85%**
plated bacteria carrying the non-targeting plasmid (galK1 site; [4]): 84.8%
plated bacteria expected to carry the targeting CREATE plasmid (galK1 site; [4]): 15.2%
# of unedited colonies carrying non-targeting gRNA plasmid (galK1 site): 16/16
enrichment of the non-targeting plasmids (galK1 site; listed as wild type gRNA): 8.6±0.1 fold
enrichment of the non-targeting plasmids (galK1 site; listed as wt sgRNA): ~8.5 fold
percentage of edited cells (galK1 site; plasmid mixture 90% targeting galK1, 10% non-targeting (eGFP) gRNA, listed as wild type gRNA): 14%
percentage of edited cells (galK1 site; plasmid mixture 90% targeting galK1, 10% non-targeting (eGFP) gRNA, listed as wt sgRNA): 13.5%
percentage of edited cells (galK1 site; transformed exclusively with the targeting plasmid, listed as wild type gRNA): 89%
percentage of edited cells (galK1 site; transformed exclusively with the targeting plasmid, listed as wt sgRNA): 88.9%

GU19: agRNA cassette GATCGGCCATAGAT, SEQ ID NO: 51 (chemistry not given here)
Editing Efficiency 1 mM Theo (galK 1 site): 64%**
Editing Efficiency no Theo (galK 1 site): 3%**
editing efficiency at xylA compared with galK1 (in words) (xylA gene): editing efficiency at xylA similar to the galK1 site used during selection
targetability of alternative galK sites (in words) [1]: more site-dependent, but also showed less background activity
apparent binding affinity to the Cas9 protein [2]: the same apparent binding affinity to the Cas9 protein as the wild type gRNA, independent of theophylline
editing efficiencies (MGλ9 strain): ~80%
increase in number of transformants (MGλ9 strain): 10^4 fold
# of unedited colonies carrying non-targeting gRNA plasmid (galK1 site): 6/16
percentage of edited cells (galK1 site; [5]): 63%

A9: agRNA cassette TGAAGGCCGCAACA, SEQ ID NO: 5 (chemistry not given here)
Editing Efficiency 1 mM Theo (galK 1 site): 81%**
Editing Efficiency no Theo (galK 1 site): 9%**
editing efficiency at xylA compared with galK1 (in words) (xylA gene): editing efficiency at xylA similar to the galK1 site used during selection
targetability of alternative galK sites (in words) [1]: Only one of those sites was not targetable
apparent binding affinity to the Cas9 protein [2]: the same apparent binding affinity to the Cas9 protein as the wild type gRNA, independent of theophylline
editing efficiencies (MGλ9 strain): ~80%
increase in number of transformants (MGλ9 strain): 10^4 fold
# of unedited colonies carrying non-targeting gRNA plasmid (galK1 site): 9/16
percentage of edited cells (galK1 site; [5]): 81%

Cn1c(=O)[nH]c(=O)c2nc[nH]c21 [3MX, 3-methylxanthine]
editing of galK and xylA upon induction (in words) [3]: induced mostly editing of xylA and to a lesser extent galK

GC16: agRNA cassette GATAGGCCAACACC, SEQ ID NO: 66 (expressed or natural sequence)
Editing Efficiency 1 mM Theo (galK 1 site): 65%
Editing Efficiency no Theo (galK 1 site): 1%

AU16: agRNA cassette AACCGGCCCCGAGT, SEQ ID NO: 29 (expressed or natural sequence)
Editing Efficiency 1 mM Theo (galK 1 site): 6%
Editing Efficiency no Theo (galK 1 site): 0%

A1: agRNA cassette GGGGGGCCTATTTT, SEQ ID NO: 8 (expressed or natural sequence)
Editing Efficiency 1 mM Theo (galK 1 site): 66%
Editing Efficiency no Theo (galK 1 site): 0%
apparent binding affinity to the Cas9 protein [2]: the same apparent binding affinity to the Cas9 protein as the wild type gRNA, independent of theophylline

AU17: agRNA cassette AAAGGGCCAGGCAT, SEQ ID NO: 30 (expressed or natural sequence)
Editing Efficiency 1 mM Theo (galK 1 site): 4%
Editing Efficiency no Theo (galK 1 site): 0%

GC20: agRNA cassette GCAAGGCCAACACC, SEQ ID NO: 69 (expressed or natural sequence)
Editing Efficiency 1 mM Theo (galK 1 site): 64%
Editing Efficiency no Theo (galK 1 site): 0%

A34: agRNA cassette TAGTTTAAACCGTT, SEQ ID NO: 7 (expressed or natural sequence)
Editing Efficiency 1 mM Theo (galK 1 site): 57%
Editing Efficiency no Theo (galK 1 site): 12%

GU13: agRNA cassette GGCCGGCCAAGCAT, SEQ ID NO: 45 (expressed or natural sequence)
Editing Efficiency 1 mM Theo (galK 1 site): 6%
Editing Efficiency no Theo (galK 1 site): 0%

GU8: agRNA cassette GGCAGGCCTCTTCT, SEQ ID NO: 40 (expressed or natural sequence)
Editing Efficiency 1 mM Theo (galK 1 site): 1%
Editing Efficiency no Theo (galK 1 site): 0%

B1: agRNAs created by Liu et al.: agRNAs created by Liu et al., designed to regulate gene expression via CRISPRi; SEQ ID NO: 74 (nucleic acid)
guide: ATGATAAAGCTGCTGCAATAGTTTTAGAGCTAGAAATAGCAAGTTAAAATAAGGCTAGTCCGTTATCAACTTGAAAAAGTGGCACCGAGTCGGTGCCAGCAGCTTTATCATATACCACGCGAAAGCGCCTTGGCAGATGATAAAGTTTTTTT
gene editing activity and ligand dependence (in words) (galK 1 site; with and without aptamer ligand): lead to gene editing with and without the aptamer-ligand

Reference: patent US12416008B2, “Compositions and methods of use for small-molecule regulation of CRISPR-Cas9 activity using RNA aptamers” (priority 2019, dated 2025)
